# Source: ChEMBL document CHEMBL5154940, “Effect of Chiral Purity on Adjuvanticity of Archaeol-Based Glycolipids” (J Med Chem, 2022)
# Activity calls are given as the source filed them. The calls are words filed in the database; no cut-off is given here.
# How the values were obtained:
# Mus musculus [1] = organism: Mus musculus; assay: Immuno-adjuvant activity in C57BL/6NCrl mouse assessed as increase in anti-ova total IgG level in serum at 0.3 to 1 mg in presence of 10 ug ovalbumin and measured 20 days post immunization by ELISA; format: functional, organism-based; conditions: dose 0.3-1 mg, time 20.0 day
# Mus musculus [2] = assay: Immuno-adjuvant activity in C57BL/6NCrl mouse assessed as increase in anti-ova total IgG level in serum at 0.3 to 1 mg administered on day 0 and as booster dose on day 21 in presence of 10 ug ovalbumin measured on day 28 by ELISA; format: functional, organism-based; conditions: dose 0.3-1 mg, time 28.0 day
# Mus musculus [3] = assay: Immuno-adjuvant activity in C57BL/6NCrl mouse assessed as increase in anti-ova total IgG level in serum at 0.3 to 1 mg administered on day 0 and as booster dose on day 21 in presence of 1 ug ovalbumin measured on day 28 by ELISA; format: functional, organism-based; conditions: dose 0.3-1 mg, time 28.0 day
# Mus musculus [4] = organism: Mus musculus; assay: Immuno-adjuvant activity in C57BL/6NCrl mouse assessed as increase in IFN-gamma spot forming cells measured per 10^6 splenocytes at 0.3 mg in presence of 10 ug ovalbumin incubated for 20 hrs with SIINFEKL peptide stimulant and measured on day 28 by AEC chromogen based ELISPOT analysis; format: functional
# Mus musculus [5] = organism: Mus musculus; assay: Immuno-adjuvant activity in C57BL/6NCrl mouse assessed as increase in IFN-gamma spot forming cells measured per 10^6 splenocytes at 1 mg in presence of 1 ug ovalbumin incubated for 20 hrs with SIINFEKL peptide stimulant and measured on day 28 by AEC chromogen based ELISPOT analysis; format: functional
# [6] = (§1) Cytotoxicity against mouse CD8-positive T cells in Ova- immunized C57BL/6NCrl mouse assessed as reduction in cell viability at 1 mg administrated on day 0 and as booster dose on day 21 followed by injection of cells to immunized mouse on day 27 in presence of 10 ug ovalbumin and measured on day 28 by flow cytometry analysis; format: toxicity, cell-based; conditions: 672 h, time 28 day
# [7] = as §1, with “at 0.3” for “at 1”; format: toxicity, cell-based; conditions: 672 h, time 28 day
# Mus musculus [8] = organism: Mus musculus; assay: Immuno-adjuvant activity in C57BL/6NCrl mouse assessed as increase in anti-ova total IgG level in serum at 1 mg in presence of 1 ug ovalbumin and measured 20 days post immunization by ELISA; format: functional, organism-based; conditions: time 20.0 day
# Mus musculus [9] = organism: Mus musculus; assay: Immuno-adjuvant activity in C57BL/6NCrl mouse assessed as increase in IFN-gamma spot forming cells measured per 10^6 splenocytes at 1 mg in presence of 10 ug ovalbumin incubated for 20 hrs with SIINFEKL peptide stimulant and measured on day 28 by AEC chromogen based ELISPOT analysis; format: functional
# [10] = as §1, with “1” for “10”; format: toxicity, cell-based; conditions: 672 h, time 28 day
Compound,Activity (Mus musculus [1]),Activity (Mus musculus [2]),Activity (Mus musculus [3]),Activity (Mus musculus [4]),Activity (Mus musculus [5]),Activity [6],Activity [7],Activity (Mus musculus [8]),Activity (Mus musculus [9]),Activity [10]
CC(C)CCCC(C)CCCC(C)CCCC(C)CCOCC(CO[C@@H]1O[C@H](CO)[C@@H](O[C@@H]2O[C@H](COS(=O)(=O)[O-])[C@H](O)[C@H](O)[C@H]2O)[C@H](O)[C@H]1O)OCCC(C)CCCC(C)CCCC(C)CCCC(C)C.[Na+] (stereo not given in full),Active,Active,Active,6,6,Toxic,Toxic,Active,40,Toxic
CC(C)CCC[C@@H](C)CCC[C@@H](C)CCC[C@@H](C)CCOC[C@@H](CO[C@@H]1O[C@H](CO)[C@@H](O[C@@H]2O[C@H](COS(=O)(=O)[O-])[C@H](O)[C@H](O)[C@H]2O)[C@H](O)[C@H]1O)OCC[C@H](C)CCC[C@H](C)CCC[C@H](C)CCCC(C)C.[Na+],Active,Active,Active,6,6,Toxic,Toxic,Active,40,Toxic
CC(C)CCC[C@@H](C)CCC[C@@H](C)CCC[C@@H](C)CCOC[C@H](CO[C@@H]1O[C@H](CO)[C@@H](O[C@@H]2O[C@H](COS(=O)(=O)[O-])[C@H](O)[C@H](O)[C@H]2O)[C@H](O)[C@H]1O)OCC[C@H](C)CCC[C@H](C)CCC[C@H](C)CCCC(C)C.[Na+],Active,Active,Active,6,6,Toxic,Toxic,Active,40,Toxic
